Reference: ChEMBL document CHEMBL1201862, “PubChem BioAssay data set” (2004)
Active and inactive are the calls of the source.

How the values were obtained:
Cytochrome P450 3A4 = Cytochrome P450 3A4 (Homo sapiens, UniProt P08684);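 note: CYP3A4 tested as one member of a cytochrome P450 panel screen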
Cytochrome P450 2C9 = Cytochrome P450 2C9 (Homo sapiens, UniProt P11712)
[1] = viability loss in HEK293T cells – cell-based, cherry-picks, cytotoxicity control for HIV Vif inhibitor project, dose response (AID 652208); type: functional
[2] = target: Peroxisome proliferator-activated receptor gamma/Nuclear receptor coactivator 2 (Homo sapiens, UniProt P37231); assay: (§1) TR-FRET dose response biochemical High Throughput Screening assay for agonists of the steroid receptor coactivator 2 (SRC-2) recruitment by the peroxisome proliferator-activated receptor gamma (PPAR gamma): non-selective agonists. [Related pubchem assays: 1297, 1032 ]; type: functional
Sequence of Peroxisome proliferator-activated receptor gamma/Nuclear receptor coactivator 2 (P37231 whole entry): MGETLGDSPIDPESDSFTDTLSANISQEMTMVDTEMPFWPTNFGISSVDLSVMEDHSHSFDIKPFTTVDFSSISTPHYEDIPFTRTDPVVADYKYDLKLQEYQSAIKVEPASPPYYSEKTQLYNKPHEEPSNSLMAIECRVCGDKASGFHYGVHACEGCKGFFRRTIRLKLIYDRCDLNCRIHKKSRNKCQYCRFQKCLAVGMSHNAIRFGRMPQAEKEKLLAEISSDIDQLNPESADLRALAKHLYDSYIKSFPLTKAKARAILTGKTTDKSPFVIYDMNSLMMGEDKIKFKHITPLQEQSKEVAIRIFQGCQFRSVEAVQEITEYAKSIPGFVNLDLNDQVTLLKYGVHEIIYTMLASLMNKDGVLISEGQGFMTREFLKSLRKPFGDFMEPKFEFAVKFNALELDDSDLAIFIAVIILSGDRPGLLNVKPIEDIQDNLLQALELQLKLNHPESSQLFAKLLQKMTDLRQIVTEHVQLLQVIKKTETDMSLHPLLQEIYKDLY
Sequence of Peroxisome proliferator-activated receptor gamma/Nuclear receptor coactivator 2 (Q15596 whole entry, further chain): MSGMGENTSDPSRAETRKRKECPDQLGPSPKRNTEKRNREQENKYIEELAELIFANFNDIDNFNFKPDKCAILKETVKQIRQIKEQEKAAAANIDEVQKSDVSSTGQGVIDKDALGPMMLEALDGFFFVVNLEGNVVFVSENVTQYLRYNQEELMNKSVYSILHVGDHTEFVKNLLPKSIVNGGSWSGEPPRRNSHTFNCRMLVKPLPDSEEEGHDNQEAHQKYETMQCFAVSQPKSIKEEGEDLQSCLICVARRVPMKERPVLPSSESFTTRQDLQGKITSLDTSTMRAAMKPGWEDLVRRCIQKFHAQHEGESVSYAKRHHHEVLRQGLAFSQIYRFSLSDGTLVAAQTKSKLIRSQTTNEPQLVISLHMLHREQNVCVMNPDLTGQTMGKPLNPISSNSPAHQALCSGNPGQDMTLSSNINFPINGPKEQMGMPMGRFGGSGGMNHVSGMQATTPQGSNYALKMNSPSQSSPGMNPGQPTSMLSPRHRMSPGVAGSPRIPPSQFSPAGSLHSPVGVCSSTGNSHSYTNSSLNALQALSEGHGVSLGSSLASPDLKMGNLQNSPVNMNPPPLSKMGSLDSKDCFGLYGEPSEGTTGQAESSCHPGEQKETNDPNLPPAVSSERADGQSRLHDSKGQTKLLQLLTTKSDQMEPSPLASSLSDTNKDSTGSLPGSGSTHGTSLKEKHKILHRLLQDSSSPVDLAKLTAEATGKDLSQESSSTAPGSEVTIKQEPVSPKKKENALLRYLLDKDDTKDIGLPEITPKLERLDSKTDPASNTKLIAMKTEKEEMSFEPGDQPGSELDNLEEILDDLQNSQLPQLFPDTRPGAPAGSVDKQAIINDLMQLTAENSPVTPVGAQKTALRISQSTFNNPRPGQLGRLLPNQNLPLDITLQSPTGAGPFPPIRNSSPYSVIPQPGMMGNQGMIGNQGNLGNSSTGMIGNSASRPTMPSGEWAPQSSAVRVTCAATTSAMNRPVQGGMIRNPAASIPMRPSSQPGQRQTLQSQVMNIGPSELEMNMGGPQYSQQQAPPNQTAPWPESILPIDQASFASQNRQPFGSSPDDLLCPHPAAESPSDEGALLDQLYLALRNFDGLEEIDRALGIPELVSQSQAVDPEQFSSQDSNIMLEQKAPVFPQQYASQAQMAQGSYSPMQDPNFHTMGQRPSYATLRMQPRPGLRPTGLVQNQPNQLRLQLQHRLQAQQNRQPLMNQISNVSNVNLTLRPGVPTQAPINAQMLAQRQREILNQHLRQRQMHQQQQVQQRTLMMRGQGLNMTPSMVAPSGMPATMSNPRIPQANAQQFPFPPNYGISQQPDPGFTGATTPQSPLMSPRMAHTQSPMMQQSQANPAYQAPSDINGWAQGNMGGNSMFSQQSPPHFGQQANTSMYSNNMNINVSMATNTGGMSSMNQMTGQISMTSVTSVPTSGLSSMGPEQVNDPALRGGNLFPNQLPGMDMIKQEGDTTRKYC

[3] = target: Peroxisome proliferator-activated receptor gamma/Nuclear receptor coactivator 1 (Homo sapiens, UniProt P37231); assay: as §1, with “1 (SRC-1)” for “2 (SRC-2)”, “assays (depositor defined):AID1300, AID1808, AID504735, AID631]” for “assays: 1297, 1032 ]”; type: protein assay
[4] = target: Peroxisome proliferator-activated receptor gamma/Nuclear receptor coactivator 3 (Homo sapiens, UniProt P37231); assay: as §1, with “3 (SRC-3)” for “2 (SRC-2)”, “1301 (Confirmation screen.), 1048 (Primary screen.)]” for “1297, 1032 ]”; type: functional
Sequence of Peroxisome proliferator-activated receptor gamma/Nuclear receptor coactivator 3 (P37231 whole entry): as the sequence (P37231 whole entry) above
Sequence of Peroxisome proliferator-activated receptor gamma/Nuclear receptor coactivator 3 (Q9Y6Q9 whole entry, further chain): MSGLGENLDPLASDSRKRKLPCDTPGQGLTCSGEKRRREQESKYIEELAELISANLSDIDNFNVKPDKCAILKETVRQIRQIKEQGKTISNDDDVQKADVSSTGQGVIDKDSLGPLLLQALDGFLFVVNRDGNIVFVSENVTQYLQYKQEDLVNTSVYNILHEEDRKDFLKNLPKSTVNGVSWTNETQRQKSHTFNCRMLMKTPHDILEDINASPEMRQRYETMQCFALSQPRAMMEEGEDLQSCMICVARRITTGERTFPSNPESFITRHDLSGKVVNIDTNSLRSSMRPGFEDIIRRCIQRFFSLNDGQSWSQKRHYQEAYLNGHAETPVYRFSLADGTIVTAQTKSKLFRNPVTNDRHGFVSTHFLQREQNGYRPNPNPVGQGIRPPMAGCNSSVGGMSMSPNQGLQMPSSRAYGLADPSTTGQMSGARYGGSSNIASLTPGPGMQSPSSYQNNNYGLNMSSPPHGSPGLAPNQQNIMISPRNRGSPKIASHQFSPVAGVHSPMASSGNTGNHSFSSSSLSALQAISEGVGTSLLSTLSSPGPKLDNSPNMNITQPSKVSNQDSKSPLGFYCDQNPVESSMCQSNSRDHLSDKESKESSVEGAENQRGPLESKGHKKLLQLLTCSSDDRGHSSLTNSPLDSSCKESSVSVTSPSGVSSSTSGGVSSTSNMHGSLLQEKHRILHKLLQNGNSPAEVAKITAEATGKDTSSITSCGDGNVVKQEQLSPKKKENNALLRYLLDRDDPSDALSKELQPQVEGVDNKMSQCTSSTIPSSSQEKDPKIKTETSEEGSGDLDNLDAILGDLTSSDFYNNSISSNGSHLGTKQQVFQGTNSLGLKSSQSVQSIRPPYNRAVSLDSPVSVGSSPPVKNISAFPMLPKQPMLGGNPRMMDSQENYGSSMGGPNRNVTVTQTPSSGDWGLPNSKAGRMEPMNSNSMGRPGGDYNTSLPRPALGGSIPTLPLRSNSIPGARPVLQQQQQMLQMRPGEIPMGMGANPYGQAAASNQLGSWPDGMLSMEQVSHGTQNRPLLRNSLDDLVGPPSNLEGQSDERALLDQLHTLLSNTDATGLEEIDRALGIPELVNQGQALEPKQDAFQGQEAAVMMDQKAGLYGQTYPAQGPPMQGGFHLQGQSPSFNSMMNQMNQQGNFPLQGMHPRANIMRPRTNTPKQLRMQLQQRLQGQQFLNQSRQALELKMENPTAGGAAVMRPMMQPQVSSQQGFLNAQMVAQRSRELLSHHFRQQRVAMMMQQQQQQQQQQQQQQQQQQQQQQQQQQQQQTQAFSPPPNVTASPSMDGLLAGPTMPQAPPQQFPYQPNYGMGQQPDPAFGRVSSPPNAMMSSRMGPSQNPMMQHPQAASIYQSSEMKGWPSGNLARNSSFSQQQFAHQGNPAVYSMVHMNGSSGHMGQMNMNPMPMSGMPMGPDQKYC

Beta-galactosidase = Beta-galactosidase (Escherichia coli, UniProt Q8VNN2); assay: Dose response counterscreen for EBI2 assay utilizing the enzyme, b-galactosidase.; type: functional
Vero = assay: viability loss in Vero cells – cell-based, plate reader, cherry-pick samples, cytotoxicity control, dose response (AID 687020); type: functional; conditions: Chlorocebus sabaeus
Cysteine protease ATG4B = target: T1, Cysteine protease ATG4B (Homo sapiens, UniProt Q9Y4P1); type: functional;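 note: Fluorescence-based dose-response confirmation assay measuring inhibition of ATG4B activity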
T1 sequence (Q9Y4P1 whole entry): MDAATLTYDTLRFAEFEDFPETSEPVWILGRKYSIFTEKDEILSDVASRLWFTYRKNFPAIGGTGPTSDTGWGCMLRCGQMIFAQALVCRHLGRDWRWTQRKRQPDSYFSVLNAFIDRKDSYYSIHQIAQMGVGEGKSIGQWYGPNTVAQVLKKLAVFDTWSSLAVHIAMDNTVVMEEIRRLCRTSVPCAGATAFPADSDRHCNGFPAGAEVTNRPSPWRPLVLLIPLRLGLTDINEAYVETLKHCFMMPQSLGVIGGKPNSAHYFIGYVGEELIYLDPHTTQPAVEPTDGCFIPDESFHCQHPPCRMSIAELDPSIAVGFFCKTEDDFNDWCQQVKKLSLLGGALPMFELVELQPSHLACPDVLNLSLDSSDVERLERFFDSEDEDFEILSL

Beta-lactamase [5] = target: Beta-lactamase (Salmonella choleraesuis (strain SC-B67), UniProt Q5J463); assay: Epi-absorbance-based counterscreen for selective VIM-2 inhibitors: dose response biochemical high throughput screening assay to identify inhibitors of TEM-1 serine-beta-lactamase.
Phospholipase A2 = Phospholipase A2 (Homo sapiens, UniProt P04054); type: functional;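 note: confirmatory dose-response counterscreen on phospholipase A2, testing hits that came from an ultra-high-throughput screen for ATG4B inhibitors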
Sequence of Phospholipase A2 (P04054 whole entry): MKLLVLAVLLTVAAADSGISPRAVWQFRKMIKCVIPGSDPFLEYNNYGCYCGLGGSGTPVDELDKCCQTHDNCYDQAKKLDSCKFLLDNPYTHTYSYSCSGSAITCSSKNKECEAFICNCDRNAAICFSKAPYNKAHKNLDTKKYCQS

Beta-lactamase [6] = target: T2, Beta-lactamase (Pseudomonas aeruginosa, UniProt Q79MP6); assay: inhibition of IMP-1 beta-lactamase activity – biochemical, epi-absorbance, selectivity assay for VIM-2 inhibitor project, dose response (AID 1920)
T2 sequence (Q79MP6 whole entry): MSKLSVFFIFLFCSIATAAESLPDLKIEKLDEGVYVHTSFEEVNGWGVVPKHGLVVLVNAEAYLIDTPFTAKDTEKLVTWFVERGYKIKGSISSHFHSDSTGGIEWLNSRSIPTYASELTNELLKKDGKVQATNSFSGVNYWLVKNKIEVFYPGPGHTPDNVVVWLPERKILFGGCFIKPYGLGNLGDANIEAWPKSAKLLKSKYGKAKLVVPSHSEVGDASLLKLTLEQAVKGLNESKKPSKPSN

Aminopeptidase N = target: T3, Aminopeptidase N (Plasmodium falciparum FcB1/Columbia, UniProt O96935); assay: malaria alanyl aminopeptidase activity blockers – biochemical, fluorogenic H-Leu-NHMec substrate, 1536-well (AID 1445); design: species or system Plasmodium falciparum 3D7, 3D7
T3 sequence (O96935 whole entry): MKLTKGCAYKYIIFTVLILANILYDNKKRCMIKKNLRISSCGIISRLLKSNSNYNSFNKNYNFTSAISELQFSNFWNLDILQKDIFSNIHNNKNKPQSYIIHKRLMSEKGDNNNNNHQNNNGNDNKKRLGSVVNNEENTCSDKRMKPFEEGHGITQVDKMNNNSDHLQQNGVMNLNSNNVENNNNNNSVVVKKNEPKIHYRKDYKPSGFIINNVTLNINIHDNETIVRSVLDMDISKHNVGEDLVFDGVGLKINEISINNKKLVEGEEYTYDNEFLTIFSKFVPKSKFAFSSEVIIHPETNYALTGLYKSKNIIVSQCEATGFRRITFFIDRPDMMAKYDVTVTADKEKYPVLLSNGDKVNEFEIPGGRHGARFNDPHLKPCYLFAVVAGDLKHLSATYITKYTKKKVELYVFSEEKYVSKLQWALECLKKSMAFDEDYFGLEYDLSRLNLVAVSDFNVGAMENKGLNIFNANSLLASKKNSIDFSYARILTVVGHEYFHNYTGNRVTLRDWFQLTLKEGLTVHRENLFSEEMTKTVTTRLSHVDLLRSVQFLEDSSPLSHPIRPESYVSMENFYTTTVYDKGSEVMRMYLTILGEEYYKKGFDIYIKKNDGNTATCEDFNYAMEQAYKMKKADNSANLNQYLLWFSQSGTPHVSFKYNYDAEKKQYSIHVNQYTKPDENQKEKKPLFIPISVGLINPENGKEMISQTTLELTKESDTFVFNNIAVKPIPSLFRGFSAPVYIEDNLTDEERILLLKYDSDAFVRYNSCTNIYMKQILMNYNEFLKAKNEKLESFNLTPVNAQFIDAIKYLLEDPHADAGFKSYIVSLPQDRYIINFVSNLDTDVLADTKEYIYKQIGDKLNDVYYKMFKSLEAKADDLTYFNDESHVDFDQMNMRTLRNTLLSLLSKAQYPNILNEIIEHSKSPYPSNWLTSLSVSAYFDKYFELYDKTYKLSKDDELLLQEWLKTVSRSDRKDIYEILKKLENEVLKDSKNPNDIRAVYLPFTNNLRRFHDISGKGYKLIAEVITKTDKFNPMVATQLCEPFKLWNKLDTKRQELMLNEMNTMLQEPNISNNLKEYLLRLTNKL

Beta-lactamase [7] = target: T2, Beta-lactamase; assay: […] counterscreen for selective VIM-2 inhibitors: dose response biochemical high throughput screening assay to identify inhibitors of IMP-1 metallo-beta-lactamase.
cells [8] = type: functional, cell-based
cells [9] = type: functional, cell-based; remark: listed apart in the source
[10] = CMV-driven luciferase expression suppression in HEK293 – cell-based, luminescence, dry powder, counter-screen for Pax8 inhibitor project, dose response (AID 743020); type: functional
[11] = target: Heat shock protein HSP 90-alpha (Homo sapiens, UniProt P07900); type: functional, organism-based
[12] = NIH3T3 cell viability loss – ATP luminescence, mouse fibroblasts, counter-screen, dose response (AID 2010); type: functional, cell-based;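 note: cells exposed to compound for about 90 hours before reading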
[13] = Trypanosoma cruzi growth suppression in host cells – NIH3T3 host cells, beta-gal luminescence, confirmation (AID 2044); type: functional, cell-based;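 note: intracellular parasites grown in NIH/3T3 mouse fibroblasts as host cells; luminescent beta-galactosidase reporter signal from transgenic T. cruzi replicating inside host cells; inhibitors lower the luminescence signal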
[14] = target: T4, Serine/threonine-protein phosphatase (Candida dubliniensis (strain CD36 / CBS 7987 / NCPF 3949 / NRRLY-17841) (Yeast), UniProt B9W6M3); assay: blockers of CaCl2-induced CDRE-lacZ signaling – S. cerevisiae, luminescence, secondary, dose response (AID 2388); type: functional, cell-based;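 note: yeast reporter cells carrying a calcineurin-responsive lacZ construct stimulated with calcium chloride; luminescent beta-galactosidase reporter signal in whole cells rather than isolated phosphatase activity; potency for inhibition where a drop in reporter signal means calcineurin blockade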
T4 sequence (B9W6M3 whole entry): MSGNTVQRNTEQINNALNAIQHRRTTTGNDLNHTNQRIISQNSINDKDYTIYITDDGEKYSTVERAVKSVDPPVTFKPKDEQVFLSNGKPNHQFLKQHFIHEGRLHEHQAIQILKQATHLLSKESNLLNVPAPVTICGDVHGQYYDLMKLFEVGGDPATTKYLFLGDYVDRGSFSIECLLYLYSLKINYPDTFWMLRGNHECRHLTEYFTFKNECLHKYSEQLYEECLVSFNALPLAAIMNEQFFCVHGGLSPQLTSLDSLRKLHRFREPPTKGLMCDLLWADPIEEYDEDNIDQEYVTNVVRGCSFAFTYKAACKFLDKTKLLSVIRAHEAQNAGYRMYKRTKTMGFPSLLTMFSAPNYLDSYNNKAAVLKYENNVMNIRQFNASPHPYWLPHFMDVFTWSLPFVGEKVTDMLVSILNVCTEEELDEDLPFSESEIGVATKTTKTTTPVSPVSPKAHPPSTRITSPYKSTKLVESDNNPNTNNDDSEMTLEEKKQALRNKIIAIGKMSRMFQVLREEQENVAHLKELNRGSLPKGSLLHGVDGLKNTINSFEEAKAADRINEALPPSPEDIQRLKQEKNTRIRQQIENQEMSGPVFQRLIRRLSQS

[15] = tested on: Streptococcus sp. 'group A'; assay: Streptococcus pyogenes SK(-)GAS viability under kanamycin – luminescence, BacTiterGlo, confirmation, counter-screen for streptokinase expression inhibitor project, dose response (AID 1900); type: functional, organism-based
[16] = fluconazole-exposed Candida albicans growth modulators – fluorescence, retest, confirmation (AID 2467); type: functional, cell-based
Streptococcus = assay: GAS UMAA2166 growth inhibition – luminescence, BacTiterGlo, counter-screen for streptokinase expression inhibitor project, dose response (AID 1915); type: functional, organism-based;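 note: potency for reduction of bacterial viability or growth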
[17] = target: ATP-dependent molecular chaperone HSP82 (Candida albicans (strain WO-1) (Yeast), UniProt C4YTQ8); assay: steroid-induced GRE reporter decrease in yeast – S. cerevisiae, luminescence, Hsp90 inhibitor project, dose response (AID 2400); type: functional, cell-based;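 note: beta-galactosidase luminescence from glucocorticoid response element reporter as proxy for Hsp90 function; inhibitor potency where signal loss means Hsp90 inhibition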
Sequence of ATP-dependent molecular chaperone HSP82 (C4YTQ8 whole entry): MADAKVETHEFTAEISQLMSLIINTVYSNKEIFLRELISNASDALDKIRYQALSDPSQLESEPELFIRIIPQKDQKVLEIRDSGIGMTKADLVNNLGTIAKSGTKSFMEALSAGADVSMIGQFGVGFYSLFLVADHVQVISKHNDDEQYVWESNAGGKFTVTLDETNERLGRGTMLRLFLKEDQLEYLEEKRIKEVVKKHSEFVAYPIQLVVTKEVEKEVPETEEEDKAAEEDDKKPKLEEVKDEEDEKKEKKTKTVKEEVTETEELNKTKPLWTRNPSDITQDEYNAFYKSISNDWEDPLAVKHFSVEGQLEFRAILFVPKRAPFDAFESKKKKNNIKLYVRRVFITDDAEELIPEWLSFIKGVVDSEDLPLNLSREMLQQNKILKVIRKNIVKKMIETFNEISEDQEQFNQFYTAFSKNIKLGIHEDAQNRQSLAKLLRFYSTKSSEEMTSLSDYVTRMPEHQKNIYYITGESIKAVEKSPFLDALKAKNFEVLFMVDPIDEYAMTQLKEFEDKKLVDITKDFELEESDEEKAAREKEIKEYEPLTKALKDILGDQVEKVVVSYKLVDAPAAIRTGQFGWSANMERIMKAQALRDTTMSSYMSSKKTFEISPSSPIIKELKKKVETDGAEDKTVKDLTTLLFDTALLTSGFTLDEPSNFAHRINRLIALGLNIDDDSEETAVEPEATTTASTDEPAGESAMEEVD

[18] = NIH-3T3 fibroblast cytotoxicity, dose response, cytotoxicity control, cell-based, fluorescence, Alamar Blue, secondary assay (AID 2327); type: functional;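 note: NIH-3T3 mouse fibroblasts cultured with fluconazole at 8 µg/mL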
[19] = HGIII-sPLA2 enzyme inhibition potency – biochemical, QFRET, IC50, dose response (AID 743457);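 note: green fluorescence rise as the enzyme cleaves BODIPY PC-A2 in liposomes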
[20] = target: Histone-lysine N-methyltransferase NSD2 (Homo sapiens, UniProt O96028); type: biochemical
Nonstructural protein 1 = Nonstructural protein 1 (Influenza A virus, UniProt Q194T2); type: functional, Influenza A virus (A/California/07/2009(H1N1))

CCCc1cc(=O)oc2cc(OCc3cc(OC)c(OC)c(OC)c3)c(Cl)cc12
AC50 (Cytochrome P450 3A4): 3.55 µM (inconclusive)
AC50 (Cytochrome P450 2C9): 1 µM (inconclusive)
AC50 [1]: > 52 µM (inactive)

CNC(=S)N1N=C(c2ccc(Br)cc2)CC1c1ccc(OC)cc1 (stereo unspecified)
EC50 [2]: 17.3 µM (not active)
EC50 [3]: 14.5 µM (inactive)
EC50 [4]: 49.9 µM (not active)
IC50 (Beta-galactosidase): > 80 µM (inactive)

O=C(CN1CCC(O)(c2cccc(C(F)(F)F)c2)CC1)NCCc1ccccc1
AC50 (Vero): 11.6 µM (active)

Cc1cc(OCc2cc(C(=O)O)oc2C)c2c3c(c(=O)oc2c1)CCCC3
IC50 (Cysteine protease ATG4B): 17.3 µM (active)
IC50 (Beta-lactamase [5]): > 59.6 µM (inactive)
IC50 (Phospholipase A2): 13.5 µM (active)
IC50 (Beta-lactamase [6]): > 59.6 µM (inactive)
IC50 (Aminopeptidase N): 66.4 µM (active)
IC50 (Beta-lactamase [7]): > 59.6 µM (inactive)

O=C(Nc1ccccc1)Nc1nncs1
EC50 (cells [8]): > 29.9 µM (inactive)
IC50 (cells [9]): > 29.9 µM (inactive)

CC1CCN(CCOc2ccc(OCc3ccccc3)cc2)CC1
AC50 (Vero): 25.9 µM (active)
AC50 [10]: < 9.29 µM (active)

COc1ccc(Cl)cc1C(Nc1cccnc1)c1ccc2cccnc2c1O (stereo unspecified)
AC50 [11]: 2.2 µM (active)
EC50 [12]: 6.56 µM (active)
EC50 [13]: 1.86 µM (active)
EC50 [14]: > 180 µM (inactive)
EC50 [15]: 3.74 µM (active)
EC50 [16]: 0.728 µM (active)
EC50 (Streptococcus): 5.9 µM (active)
EC50 [17]: 16.3 µM (active)
EC50 [18]: 33.6 µM (active)
IC50 [19]: > 122 µM (inactive)

Cc1ccc(N2CCOCC2)c2c1C(=O)c1ccccc1C2=O
AC50 [20]: 10.5 µM (active)
IC50 (Nonstructural protein 1): 14.5 µM (active)
IC50 [19]: > 122 µM (inactive)
